Counter-ions that a name gives are not always drawn.

In this assay the test system is spiral strips of the arteria pulmonalis of the guinea pig. As to the kind of experiment: Relaxing action on K+-depolarized, CaCl2-contracted spiral strips of guinea pig arteria pulmonalis (modified method of Godfraind and Kaba and of Schumann et al.). The note with it: Cavia porcellus; depolarized with 40 mmol/l potassium in calcium-free Tyrode solution; contraction by 0.5 mmol/l CaCl2; cumulative addition; mean value of 4 to 6 strips of vessel; read-out: IC50: concentration of test substance which inhibits the contraction by 50%. The text has this:
The pharmacological action of the compound of the formula I has been determined by a modified method of Godfraind and Kaba (Arch. Int. Pharmacodyn. Ther. 196, (Suppl) 35 to 49, 1972) and of Schumann et al. (Naunyn-Schmiedeberg's Arch. Pharmacol. 289, 409 to 418, 1975). In this method, spiral strips of the arteria pulmonalis of the guinea pig are depolarized with 40 mmol/l of potassium after equilibration in calcium-free Tyrode solution. Addition of 0.5 mmol/l of CaCl2 then induces a contraction. The relaxing action of the test substance is determined by cumulative addition of concentrations graduated in 1/2 log 10. The concentration of test substance which inhibits the contraction by 50% (=IC50, mol/l) is determined from the concentration/ effect curve (abscissa: -log mol/l of test substance, ordinate: % inhibition of the maximum contraction, mean value of 4 to 6 strips of vessel). The IC50 values thus obtained are stated in the following table.
Turning to `N=c1c[n+](NC2CCCCC2)[n-]o1` [Example 4e, 3-Cyclohexylamino-sydnonimine hydrochloride], the IC50 worked out at 2 µM.
As to `CCOC(=O)[N-]c1cn(N2CCOCC2)n[o+]1` [Molsidomine, N-ethoxycarbonyl-3-morpholino-sydnonimine, reference compound], the IC50 was > 100 µM.
With `N=c1c[n+](NC2CCCCC2O)[n-]o1` (centres unmarked) [Example 5b, 3-(2-Hydroxycyclohexyl-amino)-sydnonimine hydrochloride] the figure was 1 µM; with `N=c1c[n+](NCCO)[n-]o1` [Example 1a, 3-(2-Hydroxyethylamino)-sydnonimine hydrochloride], 2 µM; with `CCN[n+]1cc(=N)o[n-]1` [Example 2, 3-Ethylamino-sydnonimine hydrochloride], 2 µM.

Values taken from patent publication US5006540A, “Substituted 3-aminosydnonimines, processes for their preparation and their use” (Cassella Aktiengesellschaft, priority 1988, dated 1991).
